Reference: article PMC7044277 (Nature Communications, 2020)
Values joined by “and” are separate entries in the source; they are usually repeats but may differ in a detail not shown here. Equal values may be shown once.

Tests used:
DRD2 F1103.28A [1] = biological target: T1, DRD2 F1103.28A (Homo sapiens, UniProt P14416, F110A); assay: Gαi/o-mediated cAMP inhibition (GloSensor), mutant; format: cell-based; parameters: expressed in transfected cells; host or cells: HEK293T (ATCC CRL-11268)
DRD2 (D2 long receptor) [2] = biological target: T2, DRD2 (D2 long receptor) (Homo sapiens, UniProt P14416); assay: β-arrestin2 recruitment (Tango), HTLA cells; format: cell-based; conditions: for response, Fig_S11e dose-response source data: replicate values
T2 sequence (P14416 whole entry): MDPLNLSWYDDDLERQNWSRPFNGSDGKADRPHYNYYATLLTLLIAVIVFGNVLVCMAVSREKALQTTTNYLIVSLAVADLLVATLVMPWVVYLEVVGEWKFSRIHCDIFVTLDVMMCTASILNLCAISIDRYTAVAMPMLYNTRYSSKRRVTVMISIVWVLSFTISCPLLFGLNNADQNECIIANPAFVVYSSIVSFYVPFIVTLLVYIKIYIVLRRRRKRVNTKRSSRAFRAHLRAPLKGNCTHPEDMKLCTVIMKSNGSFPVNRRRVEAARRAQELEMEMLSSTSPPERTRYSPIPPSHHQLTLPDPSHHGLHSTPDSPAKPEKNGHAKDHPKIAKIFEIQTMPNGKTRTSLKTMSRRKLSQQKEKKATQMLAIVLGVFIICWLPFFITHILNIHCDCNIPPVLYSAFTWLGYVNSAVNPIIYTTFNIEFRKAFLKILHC

DRD3 F1063.28A [3] = biological target: T3, DRD3 F1063.28A (Homo sapiens, UniProt P35462, F106A); assay: cell-based; format: cell-based
T3 sequence (P35462 whole entry F106A): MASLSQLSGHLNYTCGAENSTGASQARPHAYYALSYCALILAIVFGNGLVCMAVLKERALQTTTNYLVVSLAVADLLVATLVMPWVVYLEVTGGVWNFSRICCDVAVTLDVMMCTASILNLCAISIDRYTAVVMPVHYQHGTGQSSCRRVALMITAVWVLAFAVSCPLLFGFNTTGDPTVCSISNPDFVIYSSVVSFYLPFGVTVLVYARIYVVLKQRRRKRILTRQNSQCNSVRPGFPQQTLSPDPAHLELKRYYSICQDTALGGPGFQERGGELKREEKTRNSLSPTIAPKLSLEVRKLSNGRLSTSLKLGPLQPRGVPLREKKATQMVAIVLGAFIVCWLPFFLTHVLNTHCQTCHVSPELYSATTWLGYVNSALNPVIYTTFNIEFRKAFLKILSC

DRD3 wild-type = DRD3 wild-type (Homo sapiens, UniProt P35462); assay: Radioligand competition binding, [3H]-N-methylspiperone; conditions: DRD3; [3H]-methylspiperone (0.8-1.0 nM); read-out: Ki
Sequence of DRD3 wild-type (P35462 whole entry): as the sequence (P35462 whole entry F106A) above, with A106F counted along it

DRD2 F1103.28A [4] = biological target: T1, DRD2 F1103.28A; assay: β-arrestin2 recruitment (Tango), mutant; format: cell-based; parameters: expressed in transfected cells; host or cells: HEK293T (ATCC CRL-11268)
DRD3 F1063.28A [5] = biological target: T3, DRD3 F1063.28A; assay: biochemical; format: binding
DRD4 (D4.4 variant) [6] = biological target: T4, DRD4 (D4.4 variant) (Homo sapiens, UniProt P21917); assay: β-arrestin2 recruitment (Tango); format: cell-based; conditions: DRD4; Tango; read-out: EC50 ± SEM
T4 sequence (P21917 1-419): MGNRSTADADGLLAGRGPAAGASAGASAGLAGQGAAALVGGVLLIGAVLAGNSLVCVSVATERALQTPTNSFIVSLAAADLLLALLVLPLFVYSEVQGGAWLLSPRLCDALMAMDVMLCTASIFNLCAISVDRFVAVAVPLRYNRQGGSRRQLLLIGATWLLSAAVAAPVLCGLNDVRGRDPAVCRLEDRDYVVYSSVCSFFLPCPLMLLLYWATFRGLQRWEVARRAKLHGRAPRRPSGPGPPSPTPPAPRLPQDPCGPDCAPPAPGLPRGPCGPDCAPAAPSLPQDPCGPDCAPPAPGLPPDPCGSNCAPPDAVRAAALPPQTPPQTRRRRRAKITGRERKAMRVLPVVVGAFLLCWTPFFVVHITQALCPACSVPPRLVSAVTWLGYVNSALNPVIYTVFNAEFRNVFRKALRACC

[7] = biological target: DRD2 (D2 long receptor) wild-type (Homo sapiens, UniProt P14416); assay: Radioligand competition binding, [3H]-N-methylspiperone, HEK293T membranes; conditions: DRD2; [3H]-methylspiperone (0.8-1.0 nM); read-out: Ki
Sequence of DRD2 (D2 long receptor) wild-type (P14416 whole entry): as the sequence (P14416 whole entry) above

DRD4 (D4.4 variant) [8] = biological target: T4, DRD4 (D4.4 variant); assay: Gαi/o-mediated cAMP inhibition (GloSensor); format: cell-based; conditions: DRD4; agonist, cAMP inhibition; read-out: EC50 ± SEM
[9] = biological target: T5, DRD4 (D4.4 variant) wild-type (Homo sapiens, UniProt P21917); assay: Radioligand competition binding, [3H]-N-methylspiperone; conditions: DRD4; [3H]-methylspiperone (0.8-1.0 nM); read-out: Ki
T5 sequence (P21917 1-419): T4 sequence (P21917 1-419)

DRD2 F1103.28L [10] = biological target: T6, DRD2 F1103.28L (Homo sapiens, UniProt P14416, F110L); assay: Gαi/o-mediated cAMP inhibition (GloSensor), mutant; format: cell-based
T6 construct: expressed in transfected cells; host or cells: HEK293T (ATCC CRL-11268)
T6 sequence (P14416 whole entry F110L): as the sequence (P14416 whole entry) above, with F110L counted along it

DRD3 = DRD3 (Homo sapiens, UniProt P35462); assay: β-arrestin2 recruitment (Tango); format: cell-based; conditions: DRD3, Tango
Sequence of DRD3 (P35462 whole entry): as the sequence (P35462 whole entry F106A) above, with A106F counted along it

DRD2 F1103.28A [11] = biological target: T1, DRD2 F1103.28A; format: binding; parameters: expressed in transfected cells; host or cells: HEK293T (ATCC CRL-11268)
DRD2 F1103.28L [12] = biological target: T6, DRD2 F1103.28L; assay: β-arrestin2 recruitment (Tango), mutant; format: cell-based
DRD2 (D2 long receptor) [13] = biological target: T2, DRD2 (D2 long receptor); assay: Gαi/o-mediated cAMP inhibition (GloSensor split-luciferase cAMP reporter), HEK293T; format: cell-based; conditions: for response, Fig_S11d dose-response source data: replicate values;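 for all read-outs here: compounds applied 15 min at room temperature, then luciferin plus 400 nM isoproterenol to raise cAMP through endogenous β2-adrenergic receptors, luminescence read 15 min later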
[14] = read-out: Emax relative to quinpirole response

T1 sequence (P14416 whole entry F110A): as the sequence (P14416 whole entry) above, with F110A counted along it

CCOc1cccc2cc(C(C)NCC3(O)CCCCCC3)oc12 (stereo not shown) [O4LE7]
EC50 (DRD2 F1103.28A [1]): > 10 µM | EC50 (DRD2 (D2 long receptor) [2]; DRD2, β-arrestin2 recruitment (Tango), read-out: EC50 ± SEM): 0.0446 ± 0.00471 µM | response, Fig_S11e dose-response source data (DRD2 (D2 long receptor) [2]; Log[Drug] -6.52): 70.7144 | response, Fig_S11e dose-response source data (DRD2 (D2 long receptor) [2]; Log[Drug] -7): 60.0625 and 58.8888 and 58.966 and 44.6969 and 52.556 and 54.4002 and 47.2717 and 45.6897 and 52.8235 | response, Fig_S11e dose-response source data (DRD2 (D2 long receptor) [2]; Log[Drug] -7.52): 37.663 and 37.8279 and 34.2682 and 29.2235 and 29.8377 and 33.7069 and 31.0328 and 28.5097 and 31.1567 | response, Fig_S11e dose-response source data (DRD2 (D2 long receptor) [2]; Log[Drug] -8): 19.0993 and 25.2494 and 16.3411 and 14.3144 and 11.2312 and 12.8766 and 17.2566 and 18.2263 and 16.5156 | response, Fig_S11e dose-response source data (DRD2 (D2 long receptor) [2]; Log[Drug] -8.52): 6.955 and 10.6803 and 8.41 and 5.811 and 4.949 and 5.989 and 8.148 and 9.142 and 8.777 | response, Fig_S11e dose-response source data (DRD2 (D2 long receptor) [2]; Log[Drug] -9): 5.592 and 4.443 and 5.4634 and 4.207 and 4.266 and 4.232 and 6.141 and 5.2483 and 8.786 | response, Fig_S11e dose-response source data (DRD2 (D2 long receptor) [2]; Log[Drug] -9.52): 4.527 and 4.325 and 4.4009 and 4.395 and 4.556 and 4.701 and 4.762 and 4.575 and 4.648 | response, Fig_S11e dose-response source data (DRD2 (D2 long receptor) [2]; Log[Drug] -10): 3.636 and 4.222 and 3.934 and 4.061 and 4.088 and 4.136 and 4.898 and 3.74 and 4.41 | response, Fig_S11e dose-response source data (DRD2 (D2 long receptor) [2]; Log[Drug] -10.52): 4.52 and 6.171 and 4.768 and 3.986 and 4.148 and 4.0514 and 3.608 and 3.803 and 4.57 | response, Fig_S11e dose-response source data (DRD2 (D2 long receptor) [2]; Log[Drug] -11): 5.604 and 3.965 and 4.161 and 3.823 and 4.063 and 4.032 and 3.814 and 4.075 and 4.582 | response, Fig_S11e dose-response source data (DRD2 (D2 long receptor) [2]; Log[Drug] -11.52): 3.3514 and 3.514 and 3.342 and 3.863 and 4.025 and 4.187 and 4.1 and 3.746 and 4.367 | response, Fig_S11e dose-response source data (DRD2 (D2 long receptor) [2]; Log[Drug] -12): 4.706 and 3.881 and 4.189 and 3.844 (2×) and 3.873 and 3.954 and 3.594 and 3.602 | Emax (DRD2 (D2 long receptor) [2]; HTLA, read-out: Emax relative to quinpirole response, DRD2, Tango): 71.8% | EC50 (DRD3 F1063.28A [3]): > 10 µM | Ki (DRD3 wild-type): 0.24 µM | EC50 (DRD2 F1103.28A [4]): > 10 µM | Ki (DRD3 F1063.28A [5]): 0.417 µM | affinity decreased, mutant vs wild type (DRD3 F1063.28A [5]; DRD3 Phe106^3.28Ala vs wild-type DRD3): 1.75 fold | EC50 (DRD4 (D4.4 variant) [6]): > 10 µM | Ki [7]: 1.58 µM | EC50 (DRD4 (D4.4 variant) [8]): > 10 µM | Ki [9]: 4.07 µM | EC50 (DRD2 F1103.28L [10]; DRD2 F1103.28L (b138 head prints DRD2 F1063.28L)): 0.00361 ± 7e-05 µM | Emax (DRD2 F1103.28L [10]; read-out: Emax relative to quinpirole response, DRD2 F1103.28L): 72.6% | EC50 (DRD3; read-out: EC50 ± SEM): 0.803 ± 0.265 µM | Emax (DRD3; [14]): 32.3% | Ki (DRD2 F1103.28A [11]; DRD2 F1103.28A, read-out: pKi ± SEM (converted)): 0.214 µM | affinity increase (binding enhanced), mutant vs wild type (DRD2 F1103.28A [11]; DRD2 Phe110^3.28Ala vs wild-type DRD2): 7.52 fold | EC50 (DRD2 F1103.28L [12]): 0.504 µM | Emax (DRD2 F1103.28L [12]; [14]): 25.8% | EC50 (DRD2 (D2 long receptor) [13]; DRD2, agonist, Gαi/o-mediated cAMP inhibition, read-out: EC50 ± SEM): 0.00165 ± 0.00105 µM | response, Fig_S11d dose-response source data (DRD2 (D2 long receptor) [13]; Log[Drug] -6.52): 96.8634 | response, Fig_S11d dose-response source data (DRD2 (D2 long receptor) [13]; Log[Drug] -7): 95.598 and 91.4295 and 85.3505 and 88.3932 and 84.5729 and 79.5858 and 85.933 and 88.7083 and 90.2631 | response, Fig_S11d dose-response source data (DRD2 (D2 long receptor) [13]; Log[Drug] -7.52): 86.7896 and 85.152 and 83.291 and 74.147 and 71.7381 and 81.1478 and 90.9653 and 82.4555 and 87.421 | response, Fig_S11d dose-response source data (DRD2 (D2 long receptor) [13]; Log[Drug] -8): 74.0608 and 77.7579 and 74.8548 and 59.6561 and 53.4646 and 60.8794 and 74.9823 and 74.9154 and 83.8097 | response, Fig_S11d dose-response source data (DRD2 (D2 long receptor) [13]; Log[Drug] -8.52): 64.5825 and 59.1734 and 57.1139 and 43.5468 and 40.7239 and 43.8667 and 54.9367 and 67.0577 and 71.5884 | response, Fig_S11d dose-response source data (DRD2 (D2 long receptor) [13]; Log[Drug] -9): 50.9108 and 57.9824 and 64.8058 and 28.6043 and 24.1441 and 25.7626 and 68.5958 and 61.4569 and 59.9355 | response, Fig_S11d dose-response source data (DRD2 (D2 long receptor) [13]; Log[Drug] -9.52): 29.7954 and 31.0609 and 40.6137 and 14.7533 and 4.309 and 6.285 and 34.6235 and 38.6026 and 45.7749 | response, Fig_S11d dose-response source data (DRD2 (D2 long receptor) [13]; Log[Drug] -10): 30.912 and 22.4013 and 39.5964 and 4.779 and -4.2354 and 0.1871 and 39.589 and 34.2056 and 43.2671 | response, Fig_S11d dose-response source data (DRD2 (D2 long receptor) [13]; Log[Drug] -10.52): 36.5196 and 13.1215 and 30.515 and 10.8765 and -4.6118 and 7.301 and 39.8732 and 28.9894 and 33.9548 | response, Fig_S11d dose-response source data (DRD2 (D2 long receptor) [13]; Log[Drug] -11): 25.0067 and 7.067 and 19.399 and -4.2354 and -19.0273 and 3.763 and 32.3665 and 18.8244 and 27.4345 | response, Fig_S11d dose-response source data (DRD2 (D2 long receptor) [13]; Log[Drug] -11.52): 11.5335 and 13.2455 and 15.2305 and 7.489 and 4.214 and 9.484 and 32.4836 and 21.3489 and 42.8324 | response, Fig_S11d dose-response source data (DRD2 (D2 long receptor) [13]; Log[Drug] -12): 5.306 and -4.8923 and -12.733 and -1.883 and -0.2081 and -16.5056 and -3.2274 and 22.4524 and -2.0571 | Emax (DRD2 (D2 long receptor) [13]; HEK-293T, read-out: Emax relative to quinpirole response, DRD2, cAMP inhibition): 95.2%
